We go through 2 compounds from ChEMBL document CHEMBL1151599, “Probing the importance of the second chloroethyl arm of a benzoic acid mustard derivative of an imidazole-containing analogue of distamycin” (Bioorg Med Chem Lett, 1994).

The subject of experiment [1] is Nucleic Acid. The experiment is described as follows: Apparent DNA binding constant to calf thymus DNA was determined using an ethidium displacement assay. Format: nucleic-acid assay. The settings on record: Bos taurus.
For experiment [2], the system named is Nucleic Acid. Description: Apparent DNA binding constant to Poly (dG-dC) was determined using an ethidium displacement assay. Format: nucleic-acid assay.
Experiment [3] deals with Nucleic Acid. Description: Apparent DNA binding constant to Poly (dA-dT) was determined using an ethidium displacement assay. It is filed as nucleic-acid assay.
The subject of experiment [4] is Nucleic Acid. The experiment is described as follows: Apparent DNA binding constant to T4 DNA was determined using an ethidium displacement assay. Format: nucleic-acid assay.
The next experiment relates to K562. The experiment is described as follows: Cytotoxicity against the growth of chronic human myeloid leukemia K562 cells in culture following 1 hour exposure of compound using MTT assay. It is filed as functional, cell-based. The settings on record: K562, 1 h. For orientation: Tetrazolium dyes change colour on reduction, which living cells bring about.

Usually IC50 stands for the midpoint of a concentration-inhibition curve. A higher IC50 goes with weaker potency in that assay.

For `CN(C)CCNC(=O)c1nc(NC(=O)c2nc(NC(=O)c3nc(NC(=O)c4ccc(N(CCCl)CCCl)cc4)cn3C)cn2C)cn1C`, the K app in the experiment on Nucleic Acid [1] was determined as 590000 M⁻¹; in the experiment on Nucleic Acid [2], 500000 M⁻¹; in the experiment with Nucleic Acid [3] it was 550000 M⁻¹; in the experiment with Nucleic Acid [4] it was 170000 M⁻¹.
Consider `CN(C)CCNC(=O)c1nc(NC(=O)c2nc(NC(=O)c3nc(NC(=O)c4ccc(NCCCl)cc4)cn3C)cn2C)cn1C`, for which the K app turned out to be 2.27e+06 M⁻¹ with Nucleic Acid [1], 900000 M⁻¹ in the experiment on Nucleic Acid [2], 550000 M⁻¹ in the experiment on Nucleic Acid [3] and 3.89e+06 M⁻¹ in the experiment with Nucleic Acid [4]. Further, the IC50 in the experiment on K562 is > 100 µM.
